According to publication PMC11375437, “Selective labelling of GBA2 in cells with fluorescent β-D-arabinofuranosyl cyclitol aziridines” (Chemical Science, 2024):
“And” between values parts separate entries of the source, which are not always exact repeats. Equal values may be shown once. Read-outs that look alike come from different tables or passages of the source.

Molecular target: T1, rhGBA1 (imiglucerase) (Homo sapiens, UniProt P04062, R534H)
T1 construct: purchased Sanofi Genzyme (gift) Cerezyme®
T1 sequence (P04062 40-536 R534H): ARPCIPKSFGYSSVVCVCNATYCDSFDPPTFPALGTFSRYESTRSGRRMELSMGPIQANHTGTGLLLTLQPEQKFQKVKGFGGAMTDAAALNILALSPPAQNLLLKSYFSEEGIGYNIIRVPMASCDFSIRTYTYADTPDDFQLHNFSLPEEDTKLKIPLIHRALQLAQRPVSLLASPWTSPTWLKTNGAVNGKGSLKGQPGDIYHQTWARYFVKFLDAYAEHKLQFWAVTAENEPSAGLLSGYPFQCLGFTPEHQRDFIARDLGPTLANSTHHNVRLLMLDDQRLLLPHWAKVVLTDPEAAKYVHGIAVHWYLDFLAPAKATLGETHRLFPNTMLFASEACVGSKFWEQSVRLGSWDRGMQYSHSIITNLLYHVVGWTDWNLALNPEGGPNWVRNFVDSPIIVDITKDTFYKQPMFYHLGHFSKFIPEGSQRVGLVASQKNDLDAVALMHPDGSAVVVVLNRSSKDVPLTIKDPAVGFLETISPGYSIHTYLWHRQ
Assay: 4MU fluorogenic substrate assay for apparent IC50, rhGBA1
Type: biochemical
Conditions: 30 min pre-incubation, 4MU-β-D-Glc
Source text: To identify an ABP that selectively labels human GBA2 over GBA1 and GBA3, a library of cyclophellitol-based ABPs with varying configurations (ESI Fig. S1 ^†) was screened for their selectivity towards human retaining β-glucosidases. For this purpose, we initially assessed the inhibition properties of the compounds using recombinant human GBA1 (rhGBA1, imiglucerase), lysates of cells overexpressing GBA2 or GBA3 (both in combination with knockout of the other retaining β-glucosidases). In a preliminary screen, enzymes were pre-incubated for 30 min with the tested compounds, followed by the addition of the fluorogenic substrate, 4MU-β-D-Glc, and subsequent quantification of released fluorescent 4MU after 30 minutes. This screening brought our attention to a new set of β-D-Araf cyclitol aziridines as potential GBA2 inhibitors. […] On the other hand, the biotin-tagged β-D-Araf compound 6 is a poor inhibitor of all three glucosidases (apparent IC50 > 8 μM). Arabinofuranosyl cyclitol 12–20 with various configurations (α-L-Araf and β-L-Araf) were also evaluated (ESI Fig. S1 ^†).
Recombinant human GBA1 (rhGBA1, Imiglucerase) was kindly provided by Sanofi Genzyme (Cambridge, MA, USA). 4-Methylumbelliferyl-β-D-glucopyranoside substrates were purchase from Glycosynth (Warrington Cheshire, UK). Protein concentration was measured using the Pierce BCA assay kit (Thermo Fisher Scientific, Waltham, MA, USA). Harvested cells (cell pellets), cell lysates and tissue homogenates not used directly were stored at -80 °C. […]
2.5 4MU fluorogenic substrate assay for apparent IC50 determination
4MU fluorogenic substrate assays (using recombination human rhGBA1 or lysates of HEK293T cells) were conducted in 96-well plates at 37 °C. Samples were diluted with McIlvaine buffer (150 mM citric acid-Na2HPO4) to a final volume of 25 μL, at the appropriate pH for each enzyme. Assays were performed by incubating the samples with 100 μL 4-methylumbelliferyl-β-D-glucopyranoside substrate diluted in McIlvaine buffer for a period of 30 min. Enzyme activities and apparent IC50 values were determined by subtraction of the background (measured for incubations without enzyme) as previously described.4 The substrate mixtures used for each enzyme were as follows:
GBA1: 3.75 mM 4-MU-β-D-glucopyranoside in McIlvaine buffer (150 mM, pH 5.2, supplemented with 0.2% (w/v) sodium taurocholate, 0.1% (v/v) Triton X-100, 0.1% (w/v) bovine serum albumin (BSA)); GBA2: 3.75 mM 4 MU-β-D-glucopyranoside in McIlvaine buffer (150 mM, pH 5.8); GBA3: 3.75 mM 4-MU-β-D-glucopyranoside in McIlvaine buffer (150 mM, pH 6.0). To determine apparent IC50: For GBA1, 3.16 ng (53 fmol) of rhGBA1 (recombinant human GBA1, Imiglucerase) was prepared in 12.5 μL McIlvaine buffer (150 mM, pH 5.2, supplemented with 0.1% (v/v) Triton X-100, 0.2% (w/v) sodium taurocholate, and 0.1% (w/v) bovine serum albumin (BSA)). The enzyme was incubated with 12.5 μL […]
of inhibitors diluted in McIlvaine buffer (150 mM, pH 5.2) at 37 °C for 30 min or 3 h. For GBA2, lysates of GBA1/GBA2 KO HEK293T cells with GBA2 overexpression were prepared in 12.5 μL McIlvaine buffer (150 mM, pH 5.8), and incubated with 12.5 μL of inhibitors diluted in McIlvaine buffer (150 mM, pH 5.8) at 37 °C for 30 min or 3 h. For GBA3, lysates of GBA1/GBA2 KO HEK293T cells with GBA3 overexpression were prepared in 12.5 μL McIlvaine buffer (150 mM, pH 6.0), and incubated with 12.5 μL of inhibitors diluted in McIlvaine buffer (150 mM, pH 6.0) at 37 °C for 30 min or 3 h. Subsequently, the samples were incubated with 100 μL 4-methylumbelliferyl-β-D-glucopyranoside substrates dissolved in McIlvaine buffer described above for a period of 30 min. After stopping the enzyme reaction with 200 μL 1 M NaOH-glycine (pH 10.3), 4-methylumbelliferone fluorescence was measured with a fluorimeter LS55 (Perkin Elmer, Waltham, MA, USA) with λEX 366 nm and λEM 445 nm. The IC50 value was calculated using Graphpad Prism 9.0 with the Nonlinear regression (curve fit) - […]

[1] = imiglucerase (Cerezyme), pH 5.2, n = 3 for β-D-Araf, n = 1 for α-L-Araf and β-L-Araf, read-out: Apparent IC50 rhGBA1

CC1=CC(C)=[N+]2C1=C(CCCCc1cn(CCCCCCCCN3[C@@H]4[C@H](CO)[C@@H](O)[C@H](O)[C@@H]43)nn1)c1c(C)cc(C)n1[B-]2(F)F (some centres unmarked) [ABP 3]
IC50 [1]: 4290 ± 157 nM

CN1/C(=C/C=C/C=C/C2=[N+](CCCCCC(=O)NCc3cn(CCCCCCCCN4[C@@H]5[C@H](CO)[C@@H](O)[C@H](O)[C@@H]54)nn3)c3ccccc3C2(C)C)C(C)(C)c2ccccc21 (some centres unmarked) [ABP 5]
IC50 [1]: 250 to 300 nM and 295 nM

OC[C@@H]1[C@@H](O)[C@H](O)[C@@H]2N[C@H]12 [Compound 1, β-D-Arabinofuranosyl cyclitol aziridine]
IC50 (read-out: Apparent IC50 GBA1): > 50000 nM | IC50 [1]: > 50000 nM

COc1ccc(C2=[N+]3C(=C(CCCCc4cn(CCCCCCCCN5[C@@H]6[C@H](CO)[C@@H](O)[C@H](O)[C@@H]65)nn4)c4ccc(-c5ccc(OC)cc5)n4[B-]3(F)F)C=C2)cc1 (some centres unmarked) [ABP 4]
IC50 [1]: 1780 ± 71 nM

[N-]=[N+]=NCCCCCCCCN1[C@@H]2[C@H](CO)[C@@H](O)[C@H](O)[C@@H]21 (stereo partly drawn) [Compound 2, β-D-arabinofuranosyl cyclitol aziridine-azidooctyl]
IC50 [1]: 2730 nM

O=C(CCCC[C@@H]1SC[C@@H]2NC(=O)N[C@@H]21)NCc1cn(CCCCCCCCN2[C@@H]3[C@H](CO)[C@@H](O)[C@H](O)[C@@H]32)nn1 (some centres unmarked) [ABP 6]
IC50 (read-out: Apparent IC50 GBA1): > 8000 nM | IC50 [1]: 10700 ± 786 nM
